Experimental data taken from US9006205B2, “Antisense oligonucleotides against neutral sphingomyelinase and neutral sphingomyelinase inhibitor GW4869 for degenerative neurological disorders” (Rush University Medical Center, priority 2011, dated 2015).

Tests used:
Format in all cases: cell-based
N-SMase = target: T1, N-SMase (Homo sapiens, UniProt Q9NY59); experiment: Assay of N-SMase activity in primary human neurons; conditions: activated astroglia-insulted human neurons, chemical inhibitors
T1 construct: endogenous in cells; host or cells: primary human neurons
T1 sequence (Q9NY59 1-655): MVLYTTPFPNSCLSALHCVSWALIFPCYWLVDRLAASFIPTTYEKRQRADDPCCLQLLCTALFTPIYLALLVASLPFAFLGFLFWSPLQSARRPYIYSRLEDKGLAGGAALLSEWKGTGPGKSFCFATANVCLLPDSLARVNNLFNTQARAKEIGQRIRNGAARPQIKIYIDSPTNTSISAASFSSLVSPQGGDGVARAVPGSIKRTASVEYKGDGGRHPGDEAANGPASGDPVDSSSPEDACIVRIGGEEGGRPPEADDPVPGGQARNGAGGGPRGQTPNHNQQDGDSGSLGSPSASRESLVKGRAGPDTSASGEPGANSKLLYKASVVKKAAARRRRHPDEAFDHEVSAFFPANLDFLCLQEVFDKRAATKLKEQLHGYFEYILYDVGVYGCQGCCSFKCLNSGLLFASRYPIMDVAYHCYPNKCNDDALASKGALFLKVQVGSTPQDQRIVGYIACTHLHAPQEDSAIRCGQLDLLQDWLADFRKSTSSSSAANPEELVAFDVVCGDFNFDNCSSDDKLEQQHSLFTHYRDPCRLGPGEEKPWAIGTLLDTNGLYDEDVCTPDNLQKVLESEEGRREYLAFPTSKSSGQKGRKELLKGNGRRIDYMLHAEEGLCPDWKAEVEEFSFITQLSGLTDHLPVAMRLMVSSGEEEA
Description: Activities of SMase(s) were assayed as described by. Briefly, after treatment, the cells were washed with PBS, harvested in PBS, divided into two halves, and centrifuged. The fraction for N-SMase was resuspended in buffer A (100 mM Tris-HCl, pH 7.4, 0.1% Triton X-100, 1 mM EDTA, and protease inhibitors), and the cell suspension was sonicated and centrifuged at 500×g at 4° C. for 5 min. The supernatant was used as the enzyme source for N-SMase. The reaction mixture contained enzyme preparation in buffer A containing 5 nmol of [^14C] sphingomyelin, 5 nmol of phosphatidylserine, 5 mM dithiothreitol, and 5 mM MgC¾ in a final volume of 100 μl. Similarly, the fraction for A-SMase was resuspended in buffer B (100 mM sodium acetate, pH 5.0, 0.1% Triton X-100, and protease inhibitors). The cell suspension was sonicated and centrifuged. The supernatant was used as the source of A-SMase. The activity of A-SMase was measured in a 100-μl reaction mixture consisting of the enzyme preparation in buffer B and 5 nmol of [^14C] sphingomyelin. The enzyme reaction was initiated by the addition of 50 μl of substrate and stopped by the addition of 1.5 ml of chloroform:methanol (2:1, v/v) and 0.2 ml of water. After vortexing and phase separation, the aqueous phase was removed for counting.
In FIGS. 3A-3E, primary human astrocytes seeded in inserts were stimulated by the combination of Aβ and IL-Iβ as described above. After 24 h, media were removed and inserts were washed and placed on neurons that were pretreated with PTIO for 30 min. In FIG. 3A, after 1 h, activity of N-SMase was measured in total cell extracts of neurons as described above. After 18 h, neuronal viability was examined by the metabolism of MTT (FIG. 3B) and the release of LDH (FIG. 3C). Values obtained from the control group served as 100%, and data obtained in other groups were calculated as percent of control accordingly. Results are mean+S.D. of three different experiments. ^ap<0.001 vs control; ^bp<0.001 vs activated astrocytes. Primary human neurons were treated with 25 μM DETA-NONOate (a NO donor) and at different time points of treatment, activities of N-SMase (FIG. 3D) and A-SMase (FIG. 3E) were monitored. ^ap<0.001 vs control (0 h).

A-SMase = target: T2, A-SMase (Homo sapiens, UniProt P17405); experiment: Assay of A-SMase activity in primary human neurons; conditions: activated astroglia-insulted human neurons, chemical inhibitors
T2 construct: The supernatant was used as the source of A-SMase; endogenous in cells; host or cells: primary human neurons
T2 sequence (P17405 47-631): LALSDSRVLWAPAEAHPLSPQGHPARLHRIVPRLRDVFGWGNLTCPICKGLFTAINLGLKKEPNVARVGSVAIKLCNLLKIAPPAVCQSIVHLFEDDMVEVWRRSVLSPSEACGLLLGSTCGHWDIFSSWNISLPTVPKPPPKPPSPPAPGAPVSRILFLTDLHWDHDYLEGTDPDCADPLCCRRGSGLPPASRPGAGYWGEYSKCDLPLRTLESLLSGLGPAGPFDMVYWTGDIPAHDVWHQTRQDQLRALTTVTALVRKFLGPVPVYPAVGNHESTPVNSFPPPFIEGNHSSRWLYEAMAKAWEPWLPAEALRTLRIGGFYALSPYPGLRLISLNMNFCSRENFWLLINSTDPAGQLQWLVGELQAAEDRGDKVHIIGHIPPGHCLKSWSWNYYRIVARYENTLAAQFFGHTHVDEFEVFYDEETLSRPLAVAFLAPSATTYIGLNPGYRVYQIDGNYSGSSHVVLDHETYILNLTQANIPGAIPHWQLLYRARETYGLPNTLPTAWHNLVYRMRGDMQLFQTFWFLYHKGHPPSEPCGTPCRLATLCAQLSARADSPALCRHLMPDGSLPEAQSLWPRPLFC
Description: Activities of SMase(s) were assayed as described by. Briefly, after treatment, the cells were washed with PBS, harvested in PBS, divided into two halves, and centrifuged. The fraction for N-SMase was resuspended in buffer A (100 mM Tris-HCl, pH 7.4, 0.1% Triton X-100, 1 mM EDTA, and protease inhibitors), and the cell suspension was sonicated and centrifuged at 500×g at 4° C. for 5 min. The supernatant was used as the enzyme source for N-SMase. The reaction mixture contained enzyme preparation in buffer A containing 5 nmol of [^14C] sphingomyelin, 5 nmol of phosphatidylserine, 5 mM dithiothreitol, and 5 mM MgC¾ in a final volume of 100 μl. […] The activity of A-SMase was measured in a 100-μl reaction mixture consisting of the enzyme preparation in buffer B and 5 nmol of [^14C] sphingomyelin. […]
In FIGS. 3A-3E, primary human astrocytes seeded in inserts were stimulated by the combination of Aβ and IL-Iβ as described above. […] In FIG. 3A, after 1 h, activity of N-SMase was measured in total cell extracts of neurons as described above. […] Values obtained from the control group served as 100%, and data obtained in other groups were calculated as percent of control accordingly. […] Primary human neurons were treated with 25 μM DETA-NONOate (a NO donor) and at different time points of treatment, activities of N-SMase (FIG. 3D) and A-SMase (FIG. 3E) were monitored. ^ap<0.001 vs control (0 h).

primary human astroglia = experiment: NO synthesis (nitrite, Griess reagent) in primary human astroglia; conditions: astroglia preincubated 30 min with different concentrations of chemical inhibitor; nitrite after 24 h
Description: Synthesis of NO was determined by assay of culture supernatants for nitrite, a stable reaction product of NO with molecular oxygen, using Griess reagent as described.
After 24 h of stimulation, the concentration of nitrite was measured in supernatants (FIG. 4A) by Griess reagent. […] Cells were treated with ASO/ScO for 40 h followed by stimulation with the combination of fibrillar Aβ and IL-Iβ as above. After 6 h, the expression of iNOS mRNA was analyzed by both semi-quantitative RT-PCR (C) and quantitative real-time PCR (FIG. 4D). The expression of TNF-a, IL-6 and IL-Iβ mRNAs were analyzed by semi-quantitative RT-PCR (FIG. 4E). Results are mean±SD of three different experiments. ^ap<0.001 vs control; ^bp<0.001 vs (Aβ+IL-Iβ).

## CN(C)CCCN1c2ccccc2CCc2ccccc21 [imipramine]
N-SMase
  activity of N-SMase: but not N-SMase
A-SMase
  activity of A-SMase: inhibited
Primary human astroglia
  (Aβ+IL-1β)-induced production of NO: showed no effect
